From article doi:10.64898/2025.12.11.693838v1 (biorxiv, 2025)

Target: T1, SaTpx (WT-SaTpx) (Staphylococcus aureus, UniProt Q2FXL3)
T1 sequence (Q2FXL3 1-164): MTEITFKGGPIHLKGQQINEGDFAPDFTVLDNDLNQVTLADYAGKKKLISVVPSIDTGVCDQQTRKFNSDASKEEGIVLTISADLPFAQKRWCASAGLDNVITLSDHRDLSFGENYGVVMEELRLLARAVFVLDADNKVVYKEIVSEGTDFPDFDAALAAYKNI
Experiment: coupled SaTrx1/SaTR NADPH oxidation assay at […] nm, Michaelis-Menten fit
Format: biochemical
Conditions: apparent; NADPH 0.2 mM; 20 mM Tris, 50 mM NaCl, pH 8.0

CC(C)(OO)c1ccccc1 [cumene hydroperoxide]
Km: 8.5 µM
